Columns and labels:
kinase c-MET = target: T1, kinase c-MET (Homo sapiens, UniProt P08581); assay: Mobility shift assay, inhibitory activity against kinase c-MET; assay type: biochemical; conditions: ATP at Km (35 μM), average of two independent experiments
T1 construct: purchased Carna 08-151

EBC-1 cells = assay: EBC-1 cell proliferation, CellTiter-Glo Luminescent Cell Viability Assay; assay type: cell-based; conditions: Homo sapiens, 72 h incubation, read-out: IC50 (nM) against EBC-1 cells
Description: Test Example 3: Inhibitory Activity of Compounds disclosed herein against EBC-1 Cells
Test method: the inhibitory activity of the compounds against EBC-1 cell proliferation was evaluated using CellTiter-Glo® Luminescent Cell Viability Assay Kit (Promega).
Test procedures: when thawing EBC-1 cells, the cell cryopreservation tube was shaken rapidly in a water bath at 37° C. to thaw the cells in 1 min. The cell suspension after thawing was mixed with RPMI1640 culture medium containing 10% FBS and centrifuged for 5 min at 1000 rpm, and the supernatant was discarded. The cell pellet was suspended in 5 mL of complete culture medium. The suspension was placed in a cell culture flask with a bottom area of 25 cm^2, and cultured in a cell incubator at 37° C./95% humidity/5% CO2. Cell passage was performed when cell confluence reached about 80%. When the cells were passaged, the original cell suspension was directly made uniform by pipetting. 1/6 of the cell suspension was kept, added with 5 mL of new complete culture medium and then made uniform by pipetting. The cell culture flask was then placed in a cell incubator for further culturing. Cell plating was performed when the cell confluence reached about 80% again. With reference to the method for cell passage, 1/6 cell suspension was kept for further culturing when the cells were plated, and the remaining 5/6 of cell suspension was placed in a 15 mL centrifuge tube. Cell viability was detected by trypan blue exclusion using an IC1000 cell counter (Countstar) to ensure that cell viability was above 90%. Cell suspension at a density of 3.33×10^4 viable cells/mL was prepared using complete culture medium, and 90 μL of the cell suspension was added into 96-well cell culture plates, so that the cell density in the cell culture plates (day 0 plate and test compound plate) was 3000 viable cells/well. A control group that contains no cell or compound but only complete culture medium and a control group that contains no compound but cells were set. The cell plates were incubated overnight in a cell incubator. […] 10 μL of the above solution was added into a corresponding cell culture plate to ensure that the initial concentration of the compound was 10 μM, the dilution factor of adjacent concentration was 3.16, and the DMSO content in the cell culture plate was 0.1%. The cell plates were then incubated in the cell incubator for 72 h. During detection, CellTiter-Glo reagent (namely CellTiter-Glo® […] cell viability test reagent, Promega, Cat. No. G7572, Lot. No. 0000310975) was melted, and the cell plate was equilibrated at room temperature for 30 min. The cell plate was added with the CellTiter-Glo reagent at 100 μL per well, and then shaken on a QB-9001 microporous quick shaker (Kylin-Bell) for 5 min to fully lyse the cells. The cell plate was left to stand at room temperature for 20 min to stabilize luminescence signals, and the luminescence value of each well was scanned by a Spectramax M3 multi-functional microplate reader (Molecular Devices) at full wavelength.
Test samples: example compounds of the present invention and cabozantinib (positive control compound).
Data analysis: cell viability was calculated for compounds at various concentrations using the following formula:
Cell viability(%)=(Lumtest compound−Lumculture solution control)/(Lumcell control−Lumculture solution control)×100%,
where Lum refers to the luminescence value of each well of the test compound plate read by the multi-functional microplate reader.
The data were analyzed using GraphPad Prism 7.0 software, fitted with nonlinear S-curve regression to give dose-response curves, and IC50 values were calculated therefrom.

[1] = system: human non-small cell lung cancer tumor cell strain EBC-1; assay: In vivo anti-tumor activity in model mice with ectopically grafted EBC-1 tumor cells; conditions: EBC-1 subcutaneous tumors in BALB/c-nude mice; 30 mg/kg intragastric once daily for 28 days; FIG. 1
Description: (§1) Test Example 5: In Vivo Anti-Tumor Activity of Compounds disclosed herein in Model Mice with Ectopically Grafted Tumor Cells
(§2) 3×10^6 cells of human non-small cell lung cancer tumor cell strain EBC-1 (ATCC) were inoculated subcutaneously into BALB/c-nude model mice (Beijing AniKeeper Biotech, 10 female mice). When the subcutaneous tumors in mice each grew to 175.5 mm^3, the mice were administered intragastrically with test samples.
The mice were divided into a negative control group and an example compound group (compound of Example 3) (30 mg/kg) with 5 mice per group. The mice in the negative control group were administered with 10% solutol HS-15, which was prepared by adding 10 mL of solutol HS-15 to 90 mL of ddH2O and then mixing well by vortexing. […]
After the start of the administration, the body weight and tumor size of each mice were measured twice a week. […]
The anti-tumor efficacy was evaluated based on the growth curve of the tumor (i.e., tumor volume per measurement versus its treatment days) and relative tumor volume during treatment. The relative tumor inhibition (TGI) was calculated according to the following formula: […]
Relative tumor volume RTV was calculated as follows: RTV=[…], where V0 is the tumor volume of the animal at the time of grouping, and Vt is the tumor volume of the animal after treatment.

[2] = Body weight of EBC-1 tumor-bearing mice during treatment; assay type: in vivo; conditions: EBC-1 BALB/c-nude mice; 30 mg/kg intragastric once daily for 28 days; FIG. 2
Description: as §1, §2
The mice were divided into a negative control group and an example compound group (compound of Example 3) (30 mg/kg) with 5 mice per group. The mice in the negative control group were administered with 10% solutol HS-15, which was prepared by adding 10 mL of solutol HS-15 to 90 mL of ddH2O and then mixing well by vortexing. The mice in the example compound group were administered with a compound solution at a concentration of […] which was prepared by dissolving the compound of Example 3 in 10% solutol HS-15. The mice in both the solvent control group and the example compound group were subjected to intragastric administration once daily for 28 days at a dosage of 10 μL per gram of body weight.
After the start of the administration, the body weight and tumor size of each mice were measured twice a week. The calculation formula for tumor size is as follows: […]

T1 sequence (P08581 956-1390 limits assumed): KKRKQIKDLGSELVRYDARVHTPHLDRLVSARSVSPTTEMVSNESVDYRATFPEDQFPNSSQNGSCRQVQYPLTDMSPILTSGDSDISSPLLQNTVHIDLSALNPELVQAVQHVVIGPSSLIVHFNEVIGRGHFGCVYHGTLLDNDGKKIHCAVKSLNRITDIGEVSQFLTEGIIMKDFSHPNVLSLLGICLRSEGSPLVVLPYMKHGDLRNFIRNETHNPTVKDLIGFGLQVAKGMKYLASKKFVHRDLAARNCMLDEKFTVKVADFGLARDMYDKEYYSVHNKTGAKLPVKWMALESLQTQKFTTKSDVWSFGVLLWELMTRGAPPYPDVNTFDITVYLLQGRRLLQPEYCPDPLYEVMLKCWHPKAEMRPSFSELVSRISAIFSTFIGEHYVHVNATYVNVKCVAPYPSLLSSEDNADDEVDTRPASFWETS

IC50 (kinase c-MET)	Structure (SMILES)	IC50 (EBC-1 cells)	tumor growth inhibition (TGI) [1]	body weight change of tumor-bearing mice [2]
23 nM	CCn1cc(-c2cnc(N)c(-c3ccc(NC(=O)c4cn(C5CC5)c(C#N)c(-c5ccc(F)cc5)c4=O)cc3F)c2)cn1 [Example 10, N-(4-(2-amino-5-(1-ethyl-1H-pyrazol-4-yl)pyridin-3-yl)-3-fluorophenyl)-6-cyano-5-(4-fluorophenyl)-1-cyclopropyl-4-oxo-1,4-dihydropyridine-3-carboxamide]	208 nM		
	COc1cc2nccc(Oc3ccc(NC(=O)c4cn(C(C)C)c(C#N)c(-c5ccc(F)cc5)c4=O)cc3F)c2cc1OC [Example 24, 6-cyano-N-(4-((6,7-dimethoxyquinolin-4-yl)oxy)-3-fluoro-phenyl)-5-(4-fluorophenyl)-1-isopropyl-4-oxo-1,4-dihydropyridine-3-carboxamide]	45 nM		
14 nM	CC(C)n1cc(C(=O)Nc2ccc(-c3cc(-c4cnn(C5CCNCC5)c4)cnc3N)c(F)c2)c(=O)c(-c2ccc(F)cc2)c1C#N [Example 2, N-(4-(2-amino-5-(1-(piperidin-4-yl)-1H-pyrazol-4-yl)pyridin-3-yl)-3-fluorophenyl)-6-cyano-5-(4-fluorophenyl)-1-isopropyl-4-oxo-1,4-dihydropyridine-3-carboxamide]	24 nM		
	CC(C)n1cc(C(=O)Nc2ccc(-c3cc(-c4cnn(C5CCN(C)CC5)c4)cnc3N)c(F)c2)c(=O)c(-c2ccc(F)cc2)c1C#N [Example 7, N-(4-(2-amino-5-(1-(1-methylpiperidin-4-yl)-1H-pyrazol-4-yl)-pyridin-3-yl)-3-fluorophenyl)-6-cyano-5-(4-fluorophenyl)-1-isopropyl-4-oxo-1,4-dihydro-pyridine-3-carboxamide]	27 nM		
	COc1cc2nccc(Oc3ccc(NC(=O)c4cn(C)c(C#N)c(-c5ccc(F)cc5)c4=O)cc3F)c2cc1OC [Example 21, 6-cyano-N-(4-((6,7-dimethoxyquinolin-4-yl)oxy)-3-fluoro-phenyl)-5-(4-fluorophenyl)-1-methyl-4-oxo-1,4-dihydropyridine-3-carboxamide]	109 nM		
3 nM	CC(C)n1cc(C(=O)Nc2ccc(-c3cc(-c4cnn(C)c4)cnc3N)c(F)c2)c(=O)c(-c2ccc(F)cc2)c1C#N [Example 4, N-(4-(2-amino-5-(1-methyl-1H-pyrazol-4-yl)pyridin-3-yl)-3-fluorophenyl)-6-cyano-5-(4-fluorophenyl)-1-isopropyl-4-oxo-1,4-dihydropyridine-3-carboxamide]	30 nM		
26 nM	CC(C)n1cc(C(=O)Nc2cc(F)c(-c3cc(-c4cnn(C)c4)cnc3N)cc2F)c(=O)c(-c2ccc(F)cc2)c1C#N [Example 6, N-(4-(2-amino-5-(1-methyl-1H-pyrazol-4-yl)pyridin-3-yl)-2,5-difluorophenyl)-6-cyano-5-(4-fluorophenyl)-1-isopropyl-4-oxo-1,4-dihydropyridine-3-carboxamide]	13 nM		
30 nM	CCn1cc(-c2cnc(N)c(-c3ccc(NC(=O)c4cn(C(C)C)c(C#N)c(-c5ccc(F)cc5)c4=O)cc3F)c2)cn1 [Example 3, N-(4-(2-amino-5-(1-ethyl-1H-pyrazol-4-yl)pyridin-3-yl)-3-fluoro-phenyl)-6-cyano-5-(4-fluorophenyl)-1-isopropyl-4-oxo-1,4-dihydropyridine-3-carboxamide]	22 nM	up to 108%	does not change significantly

— patent US20210355107A1, “MULTI-SUBSTITUTED PYRIDONE DERIVATIVES AND MEDICAL USE THEREOF” (Beijing Yuezhikangtai Biomedicines Co., Ltd., priority 2018, published 2021)
